# Test results published in ChEMBL document CHEMBL3297666, “Antibacterial inhibitors of Gram-positive thymidylate kinase: structure-activity relationships and chiral preference of a new hydrophobic binding region” (J Med Chem, 2014).
# Activity calls are given as the source filed them. The calls are words filed in the database; no cut-off is given here.
# Columns and labels:
# [1] = Inhibition of Staphylococcus aureus TMK assessed as decrease in ATP production using dTDP and ADP as substrate after 3.5 hrs by luciferin/luciferase based luminescence analysis
# [2] = Retention time of the compound by LC-MS method; assay type: physicochemical
# [3] = tested on: Staphylococcus aureus; assay: Antibacterial activity against Staphylococcus aureus ARC 516 assessed as growth inhibition by broth microdilution method; assay type: functional
# [4] = tested on: Staphylococcus aureus; assay: Antibacterial activity against methicillin-resistant and quinolone-resistant Staphylococcus aureus ARC 517 assessed as growth inhibition by broth microdilution method; assay type: functional
# [5] = Octanol-sodium phosphate buffer partition coefficient, log D of the compound at pH 7.4 by shake-flask method
# [6] = Fraction unbound in human plasma at 10 uM after 5 hrs by rapid equilibrium dialysis method; assay type: ADME, cell-free
# [7] = Fraction unbound in mouse plasma at 10 uM after 5 hrs by rapid equilibrium dialysis method; assay type: ADME, cell-free
# [8] = In vivo clearance in Wistar rat at 5 to 10 mg/kg, iv administered as bolus dose; assay type: ADME, organism-based; set-up: dose 5-10 mg/kg, route intravenous
# [9] = tested on: Streptococcus pneumoniae; assay: Antibacterial activity against Streptococcus pneumoniae ARC 2481 assessed as growth inhibition by broth microdilution method; assay type: functional
# [10] = tested on: Streptococcus pyogenes; assay: Antibacterial activity against Streptococcus pyogenes ARC 2834 assessed as growth inhibition by broth microdilution method; assay type: functional
# [11] = tested on: Staphylococcus epidermidis; assay: Antibacterial activity against Staphylococcus epidermidis ARC 323 assessed as growth inhibition by broth microdilution method; assay type: functional
# [12] = tested on: Enterococcus faecium; assay: Antibacterial activity against linezolid-resistant Enterococcus faecium ARC 1239 assessed as growth inhibition by broth microdilution method; assay type: functional
# [13] = tested on: Enterococcus faecalis; assay: Antibacterial activity against vancomycin-resistant Enterococcus faecalis ARC 1618 assessed as growth inhibition by broth microdilution method; assay type: functional
# [14] = tested on: Escherichia coli; assay: Antibacterial activity against Escherichia coli ARC 523 assessed as growth inhibition by broth microdilution method; assay type: functional
# [15] = tested on: Pseudomonas aeruginosa; assay: Antibacterial activity against Pseudomonas aeruginosa ARC 545 assessed as growth inhibition by broth microdilution method; assay type: functional
# [16] = Ratio of IC50 for human […] to IC50 for Staphylococcus aureus TMK
# [17] = Cytotoxicity against human A549 cells; assay type: cell-based; settings: read-out: MIC
# [18] = tested on: Staphylococcus aureus; assay: Antibacterial activity against methicillin-sensitive Staphylococcus aureus ARC 516 in mouse neutropenic thigh infection model assessed as inhibition of progression of bacterial infection at 100 to 200 mg/kg/day, ip administered once daily starting 2 hrs after infection measured 24 hrs after drug dosing; assay type: functional, organism-based
# [19] = tested on: Staphylococcus aureus; assay: Antibacterial activity against methicillin-sensitive Staphylococcus aureus ARC 516 in mouse neutropenic thigh infection model assessed as reduction in number of colony-forming units at 400 mg/kg/day, ip administered bid every 12 hrs as equal divided dose starting 2 hrs after infection measured 24 hrs after drug dosing relative to control; assay type: functional; settings: route intraperitoneal
# [20] = fT>MIC in mouse neutropenic thigh infection model infected with methicillin-sensitive Staphylococcus aureus ARC 516; set-up: species or system Thigh muscle
# [21] = tested on: Staphylococcus aureus; assay: Antibacterial activity against Staphylococcus aureus assessed as bacterial killing; assay type: functional, organism-based
# [22] = tested on: Staphylococcus aureus; assay: Antibacterial activity against Staphylococcus aureus assessed as log cell killing at greater than and equals to 0.5x MIC measured after 4 hrs; assay type: functional
# [23] = tested on: Staphylococcus aureus; assay: Antibacterial activity against Staphylococcus aureus assessed as bacterial killing at 0.5 to 1x MIC measured after 24 hrs; assay type: functional, organism-based
Compound,IC50 [1] [nM],Retention_time [2] [min],MIC [3] [µg/mL],MIC [4] [µg/mL],logD [5],"fraction unbound at 5 h, 10 µM [6]","fraction unbound at 5 h, 10 µM [7]",clearance [8] [mL/min/kg],other results
CCC[C@@H](c1ccc(C(=O)O)c(Oc2cccc(Cl)c2)c1F)N1CCC[C@H](n2cc(C)c(=O)[nH]c2=O)C1,3,1.86,1,0.5,0.51,0.007,0.007,18,–
CC[C@H](c1ccc(C(=O)O)c(Oc2cccc(Cl)c2)c1OC)N1CCC[C@H](n2cc(C)c(=O)[nH]c2=O)C1,69,1.55,> 16,> 16,-0.13,0.015,0.006,84,–
CC[C@@H](c1ccc(C(=O)O)c(Oc2cccc(Cl)c2)c1F)N1CCC[C@H](n2cc(C)c(=O)[nH]c2=O)C1,3,1.72,4,1,0.11,0.011,–,–,–
Cc1cn([C@H]2CCCN([C@H](CC(C)C)c3ccc(C(=O)O)c(Oc4cccc(Cl)c4)c3F)C2)c(=O)[nH]c1=O,1,–,0.25,0.5,0.92,0.013,< 0.01,84,MIC90 [3]: 2 µg/mL; MIC90 [4]: 2 µg/mL; MIC90 [9]: 0.13 µg/mL; MIC90 [10]: 2 µg/mL; MIC [11]: 2 µg/mL; MIC [12]: 2 µg/mL; MIC [13]: 8 µg/mL; MIC [14]: > 64 µg/mL; MIC [15]: > 64 µg/mL; Ratio IC50 [16]: > 25000
CCC[C@H](c1ccc(C(=O)O)c(Oc2cccc(Cl)c2)c1OC)N1CCC[C@H](n2cc(C)c(=O)[nH]c2=O)C1,30,2.18,> 16,> 16,0.08,0.034,–,–,–
CC[C@@H](c1ccc(C(=O)O)c(Oc2cccc(Cl)c2)c1OC)N1CCC[C@H](n2cc(C)c(=O)[nH]c2=O)C1,3,1.65,4,2,-0.02,0.11,0.011,73,MIC90 [3]: 4 µg/mL; MIC90 [4]: 4 µg/mL; MIC90 [9]: 2 µg/mL; MIC90 [10]: 4 µg/mL; MIC [11]: 4 µg/mL; MIC [12]: 8 µg/mL; MIC [13]: > 8 µg/mL; MIC [14]: > 64 µg/mL; MIC [15]: > 64 µg/mL; Ratio IC50 [16]: > 25000; MCC [17]: > 64 µg/mL
CCC[C@@H](c1ccc(C(=O)O)c(Oc2cccc(Cl)c2)c1OC)N1CCC[C@H](n2cc(C)c(=O)[nH]c2=O)C1,4,–,8,4,0.13,0.065,–,–,–
Cc1cn([C@H]2CCCN([C@@H](CC(C)C)c3ccc(C(=O)O)c(Oc4cccc(Cl)c4)c3F)C2)c(=O)[nH]c1=O,1,2,0.5,0.5,0.57,0.007,0.005,38,MIC90 [9]: 0.13 µg/mL; MIC [10]: 2 µg/mL; MIC [11]: 4 µg/mL; MIC [12]: 2 µg/mL; MIC [13]: 4 µg/mL; MIC [14]: > 64 µg/mL; MIC [15]: > 64 µg/mL; Ratio IC50 [16]: > 25000; inhibition [18]: Active; fold change (FC) [19]: 10; fT>MIC [20]: 27%
CCC[C@H](c1ccc(C(=O)O)c(Oc2cccc(Cl)c2)c1F)N1CCC[C@H](n2cc(C)c(=O)[nH]c2=O)C1,6,1.84,2,1,0.53,< 0.01,–,64,–
CC[C@H](c1ccc(C(=O)O)c(Oc2cccc(Cl)c2)c1F)N1CCC[C@H](n2cc(C)c(=O)[nH]c2=O)C1,2,1.75,2,2,0.12,< 0.01,–,119,–
Cc1cn([C@H]2CCCN([C@H](CC(C)(C)C)c3ccc(C(=O)O)c(Oc4cccc(Br)c4)c3)C2)c(=O)[nH]c1=O,0.8,–,–,–,–,0.032,< 0.003,42,MIC90 [3]: 1 µg/mL; MIC90 [4]: 1 µg/mL; MIC90 [9]: 0.03 µg/mL; MIC90 [10]: 0.5 µg/mL; MIC [11]: 2 µg/mL; MIC [12]: 0.25 µg/mL; MIC [13]: 1 µg/mL; MIC [14]: > 64 µg/mL; MIC [15]: > 64 µg/mL; Ratio IC50 [16]: > 25000; MCC [17]: > 64 µg/mL
CC[C@H](c1ccc(C(=O)O)c(Oc2cccc(Cl)c2)c1)N1CCC[C@H](n2cc(C)c(=O)[nH]c2=O)C1,14,–,2,2,0.22,–,–,–,Activity [21]: Dose-dependent effect; LCK [22]: >3; Activity [23]: inactive
COc1c(CN2CCC[C@H](n3cc(C)c(=O)[nH]c3=O)C2)ccc(C(=O)O)c1Oc1cccc(Cl)c1,10,2.17,8,16,-0.77,–,–,–,–
Cc1cn([C@H]2CCCN(Cc3ccc(C(=O)O)c(Oc4cccc(Cl)c4)c3F)C2)c(=O)[nH]c1=O,12,1.89,32,16,-0.59,–,–,–,–
